From publication PMC10620772, “Design, synthesis, and biological evaluation of new pyrimidine-5-carbonitrile derivatives as novel anti-cancer, dual EGFR^WT/COX-2 inhibitors with docking studies” (RSC Advances, 2023)
pIC50: −log10 of the molar value.

Columns and labels:
[1] = test system: active caspase-3 in Colo 205 cells; test: Caspase-3 ELISA; type: cell-based, human; conditions: Colo_205, treated at IC50
Excerpt: Among the death proteases, the caspases family of cysteine-dependent aspartate-directed proteases is significant. There are multiple levels where caspase activation and activity are regulated.[43] Caspases are activated during apoptosis, which eventually results in cell death by deactivating a number of signals.[44] One of the crucial survival signals, EGFR, may be the target of caspase activation to ensure the completion of apoptosis.[45] Additionally, it has been reported that activating caspase-3 through COX-2 inhibition enhances apoptosis.[40] Therefore, the impact of the novel compounds on the level of caspase 3 was examined.
(1) Into the antibody coated wells add 100 μl of standard diluent buffer excepts wells wich detected to be the chromogen blank, then add 100 μl. […] (10) Decant liquid from wells then wash, (11) pipette 100 μl of chromogen substrate to all wells, The well fluid will start to become blue. (12) 30 minutes should be spent incubating at room temperature in the dark. (13) To each well, add 100 μl of stop solution. To mix, lightly tap the plate's edge. The well solution should transform from blue to yellow. (14) Read the absorbance of each well using a microtiter plate reader at 450 nm. (15) Draw the standard curve using a curve fitting program. (16) The standard curve can be used to determine the concentrations for unknown samples and controls.[55]

HepG2 = test system: HepG2; parameters: method as in PMID 32115728, PMID 32959865; conditions: antiproliferation; cited from earlier work
[2] = parameters: method as in PMID 26764192, PMID 22249410, PMID 21414695; conditions: cited from earlier work
MALME-3M = test system: MALME-3M; parameters: method as in PMID 32115728, PMID 32959865; conditions: cited from earlier work

With `CN[C@@H]1C[C@H]2O[C@@](C)([C@@H]1OC)n1c3ccccc3c3c4c(c5c6ccccc6n2c5c31)C(=O)NC4` [Staurosporine, reference compound] the “Caspase 3” value [1] was 766.2 ± 10.4 pg·mL.

In the case of `C=CCSc1nc(Nc2ccccc2)c(C#N)c(-c2ccccc2)n1` [E], the pIC50 (HepG2) is given as 5.45.

In the case of `COc1ccc(-c2nc(-c3ccc(Cl)cc3)[nH]c(=O)c2C#N)cc1` [I], the “antinociceptive activity compared to control” value [2] is listed as “more than 88%”.

In the case of `CC(C)CSc1nc(Nc2ccc(C(=O)O)cc2)c(C#N)c(-c2ccccc2)n1` [F], the GI value (MALME-3M) is listed as 152.04%.
